Here are results for 3 substances from patent US20030125287A1, “Antisense oligonucleotides and methods to induce tumor cell death” (Hybridon, Inc., priority 2001, published 2003).

The test system of series [1] is PARP. As to the kind of experiment: PARP cleavage immunoblot in MSN cells. The format is cell-based, human. As for the experimental part:
To determine whether MSN cell death by survivin antisense oligonucleotides was mediated by caspase-3 activation, studies were conducted to examine whether PARP was cleaved following survivin antisense treatment. […] Since no PARP cleavage was detected, further tests were conducted to determine whether survivin antisense-treated cells have any active caspase-3.
(In general: A western blot detects proteins with antibodies after separation by electrophoresis.)

Series [2] concerns PARP. The settings on record: TC620 cells; 100 nM to 400 nM (FIG. 5B). The protocol:
75 μg of total protein was loaded per lane. Following gel electrophoresis and transfer to nitrocellulose membrane, the blot was incubated with a PARP monoclonal antibody (1:500) and visualized by enhanced chemiluminescence.
Survivin polyclonal antibody was purchased from R & D Systems, Inc. (Minneapolis, Minn.). […] A generic β-tubulin monoclonal antibody (TUB 2.1) was purchased from SIGMA (St. Louis, Mo.). The XIAP mAb was purchased from StressGen Biotechnologies Corp. (Victoria, Canada). The poly-ADP ribosyl polymerase (PARP) mAb was purchased from PharMingen/Transduction Laboratories (San Diego, Calif.).

The subject of series [3] is apoptosis-inducing factor (AIF). As to the kind of experiment: AIF immunostaining and DAPI double-labeling of MSN cells. In kind it is cell-based, human. The settings on record: for AIF localization: 600 nM (FIGS. 9H-9K). The protocol: To examine whether down-regulation of survivin induces AIF nuclear translocation, AIF and DAPI double-labeling was performed on MSN cells treated with lipofectin (FIG. 9H), or 600 nM survivin antisense oligonucleotide 904 (FIG. 9I), mismatch oligonucleotide 1132 (FIG. 9J), or survivin antisense oligonucleotide 906 (FIG. 9K).
Lipofectin, mismatch oligonucleotide 1132 or survivin antisense oligonucleotide-treated MSN cells were fixed and permeabilized as described for PI staining, and blocked for 1 h at room temperature with 10% normal goat serum in 5% non-fat, dry milk in 1×TBS. […] Omission of the primary antibody confirmed that the immunostaining was specific. Cells were counterstained with the DNA-specific dye DAPI (1:1000 of a 1 mg/ml stock; 15 min at room temperature). Cells were examined with an Olympus 1×70 inverted microscope. Fluorescent images were collected using a 12-bit Photometrics cooled CCD camera. For each treatment, 15 random, 40×objective fields consisting of about 600 cells were examined. TRITC (red) and DAPI (blue) stained cells were scored as having AIF staining either in the mitochondria or the nucleus relative to the total number examined. In parallel, the DAPI stained nuclei were also scored as normal, condensed, or abnormal nuclei. Experiments were performed in duplicate.

Series [4] has as its system XIAP. As to the kind of experiment: Western blot of XIAP protein in TC620 cells. The settings on record: 48 hours (FIG. 10B). The format is cell-based, human. The protocol:
TC620 oligodendroglioma cells were transfected with lipofectin or increasing concentrations of survivin antisense oligonucleotide 904 (25 to 400 nM). Total protein was isolated after 48 hours of treatment and 75 μg of total protein was loaded per lane. The experiment was performed once.

Series [5] relates to caspase-3. Briefly: Caspase-3 activity assay in MSN cells. To be noted: MSN cells, 400 nM, 48 hours; for caspase-3 activity, Relative units/mg protein +/− SD: triplicate. The format is cell-based, human. As for the experimental part:
MSN cells were treated with lipofectin, 400 nM survivin antisense oligonucleotide 903, 904, or mismatched oligonucleotide 1132, for a 48 hour period. Cell pellets were washed twice in cold PBS and re-suspended in ice-cold hypotonic cell lysis buffer (25 mM HEPES, pH 7.5, 5 mM MgCl2, 5 mM EDTA, 5 mM DTT, 2 mM PMSF, 10 μg/ml pepstatin A, 10 μg/ml leupeptin). Re-suspended pellets were incubated on ice for 20 min, followed by brief sonication for two seconds. Lysates were centrifuged at 14,000 rpm for 20 minutes at 4° C. The supernatant was retained and the protein concentration analyzed by the Bio-Rad protein assay described above.
Supernatants were assayed in triplicate, with and without the caspase-3 inhibitor, Ac-DEVD-CHO, using black opaque, 96 well, flat bottom plates (Greiner Laboratories, USA Scientific Inc., Orlando, Fla.). 50-100 μg of the supernatant was incubated in caspase-3 assay buffer (100 mM HEPES, pH 7.5, 10% sucrose, 0.1% CHAPS and 10 mM DTT) with either 2 μl of DMSO or 2 μl of 2.5 mM Ac-DEVD-CHO (Pharmingen, San Diego, Calif.) so that the final concentration of the inhibitor was 50 μM in a final volume of 100 μl. It was then incubated at 30° C. for 30 minutes. Subsequently, 2 μl of the caspase-3 substrate 2.5 mM Ac-DEVD-AMC (Pharmingen, San Diego, Calif.) (final concentration 50 μM)) was added to each well. Plates were incubated at 30° ° C. for 60 minutes in the dark.
Fluorescence of the reaction was measured using a SPECTRAmax GEMINI spectrofluorometer using SOFTmax® PRO software (Molecular Devices, Sunnyvale, Calif.) at an excitation wavelength of 355 nm and an emission wavelength of 460 nm with a cutoff filter of 455 nm. The data is presented as the ratio of the mean relative fluorescence units/mg protein±SD.

The subject of series [6] is survivin. As to the kind of experiment: Western blot of survivin protein in antisense oligonucleotide-treated TC620 cells. The format is cell-based, human. To be noted: for percentage of survivin protein over β-tubulin relative to lipofectin: 48 hours (FIG. 5A). The protocol: Subconfluent TC620 oligodendroglioma cells were transfected with lipofectin or increasing concentrations of survivin antisense oligonucleotide 904 (25 nM to 400 nM). 75 µg of total protein was loaded per lane. Blots were cut at 32.9 kD and the bottom was incubated with a survivin polyclonal antibody (1:500), while the top was incubated with a β-tubulin monoclonal antibody (1:1000).
The antisense oligonucleotides were synthesized on solid support with an automated DNA synthesizer using β-cyanoethylphosphoramidite chemistry. In order to prevent rapid degradation of the antisense oligonucleotides by cellular nucleases, oxidation was carried out with Becauge sulfurizing agent to obtain phosphorothioate backbone modified oligonucleotides. After their synthesis, the oligonucleotides were released from the solid support, deprotected, purified by reverse-phase HPLC, desalted, filtered and lyophilized. The purity and sequence integrity of oligonucleotides was ascertained by capillary gel electrophoresis and MALDI-TOF mass spectral analysis and the concentrations measured at […]. Cells were grown in 100 mm dishes and oligonucleotide treatment was performed on subconfluent cultures in the presence of Lipofectin (GIBCO) according to the manufacturer. Forty-eight hours following treatment, total protein homogenates were isolated.
Ten micrograms of the fusion protein was incubated with the survivin antibody (1:500) at 4° C. for 2 hours to overnight prior to immunoblotting. […] Blots were cut at 32.9 kD, and the bottom part of the blots were incubated with the survivin antibody overnight at 4° C. and visualized by enhanced chemiluminescence (Enhanced Chemiluminescence, Amersham, Arlington Heights, Ill.) as previously described (Sharma et al. Cell. Motil. Cytoskeleton 27:234-247).

“Also recorded” adds a separate entry of the source. Oligonucleotides are written 5' to 3', each unit as a sugar letter and its base; * is a phosphorothioate linkage, no mark a phosphodiester; rarer units and linkages stand in square brackets, end groups in braces. Plain capitals give the bases only. d = 2'-deoxy (DNA)

Take “d(TCTTGGCTCTTTCTCTGTCC) (antisense dT*dC*dT*dT*dG*dG*dC*dT*dC*dT*dT*dT*dC*dT*dC*dT*dG*dT*dC*dC) [Oligo 904, 20-mer phosphorothioate survivin antisense oligonucleotide, complementary to survivin mRNA 5248-5267]”: the “PARP cleavage, words” value in series [1] was “did not activate caspase-3 or cleave the caspase-3 substrate, PARP”. In addition, the “PARP cleavage (116 kD to 85 kD fragment), words” value in series [2] was “dramatic decrease of the 116 kD PARP protein; also recorded: resulted in the cleavage of the 116 kD caspase-3 substrate PARP”. Further, the “AIF localization” value in series [3] is listed as “nuclear translocation of AIF”. Further, the “fold change of XIAP protein over β-tubulin relative to lipofectin” value in series [4] (25 nM) was determined as 1.3 fold; in series [4] (50 nM), 1.0 fold; in series [4] (100 nM) it was 0.71 fold; in series [4] (200 nM), 0.67 fold; in series [4] (400 nM) it was 0.66 fold. Besides, the “caspase-3 activity” value in series [5] was “no significant increase in caspase-3 activity; also recorded: did not activate caspase-3”. Moreover, the “caspase-3 activity, Relative units/mg protein +/− SD” value in series [5] is 33,532 ± 3732 Relative units/mg protein. For the same substance, the “effect on survivin protein levels” value in series [6] is “marked concentration-dependent reduction in survivin protein levels”. For the same substance, the “percentage of survivin protein over β-tubulin relative to lipofectin” value in series [6] (25 nM) is 109.1%; in series [6] (50 nM) it was 97.4%; in series [6] (100 nM) it was 67.6%; in series [6] (200 nM), 45.2%; in series [6] (400 nM), 45.7%. The “decrease in survivin protein abundance relative to lipofectin-treated cells” value in series [6] (400 nM (FIG. 5A)) was 54%.
On to “d(GCTTCCCAGTCACATCCTGT) (antisense dG*dC*dT*dT*dC*dC*dC*dA*dG*dT*dC*dA*dC*dA*dT*dC*dC*dT*dG*dT) [Oligo 906, 20-mer phosphorothioate survivin antisense oligonucleotide, complementary to survivin mRNA 11897-11916]”, for which the “AIF localization” value in series [3] is “nuclear translocation of AIF”.
On to “d(GCACCTAGTCTCCCTGCACC) (DNA, all phosphorothioate, methylation of C not given here) [Oligo 1132, mismatched phosphorothioate control oligonucleotide, not complementary to survivin mRNA, reference compound]”, for which, in series [3] (600 nM), the “percentage of cells with normal-appearing nuclei by DAPI staining” value amounted to 95% and the “percentage of cells with nuclear localization / translocation of AIF” value is reported as 4-8%. Also, the “AIF localization” value in series [3] is “robust AIF staining in the cytosol”. Besides, in series [5], the “caspase-3 activity” value was “no significant increase in caspase-3 activity” and the “caspase-3 activity, Relative units/mg protein +/− SD” value is on record as 30,961 ± 1681 Relative units/mg protein.
